Structures can show the parent of a compound that is named as a salt.
Experiments:
thromboxane synthetase = biological target: T1, thromboxane synthetase (Homo sapiens, UniProt P24557); experiment: Thromboxane A2 (TxA2) synthetase inhibition; Indomethacin pretreated human platelet microsomes, rabbit aorta superfusion bioassay; assay type: biochemical; conditions: for IC50: human platelet microsomes, 5 min pre-incubation, read-out: Molar concentration causing 50% inhibition of (1) thromboxane synthetase; for Ratio of (3) to (1): prostacyclin synthetase / thromboxane synthetase 50% inhibition concentrations
T1 construct: human platelet microsomes; from tissue; host or cells: human blood platelets (indomethacin-pretreated), microsomes
T1 sequence (P24557 1-533): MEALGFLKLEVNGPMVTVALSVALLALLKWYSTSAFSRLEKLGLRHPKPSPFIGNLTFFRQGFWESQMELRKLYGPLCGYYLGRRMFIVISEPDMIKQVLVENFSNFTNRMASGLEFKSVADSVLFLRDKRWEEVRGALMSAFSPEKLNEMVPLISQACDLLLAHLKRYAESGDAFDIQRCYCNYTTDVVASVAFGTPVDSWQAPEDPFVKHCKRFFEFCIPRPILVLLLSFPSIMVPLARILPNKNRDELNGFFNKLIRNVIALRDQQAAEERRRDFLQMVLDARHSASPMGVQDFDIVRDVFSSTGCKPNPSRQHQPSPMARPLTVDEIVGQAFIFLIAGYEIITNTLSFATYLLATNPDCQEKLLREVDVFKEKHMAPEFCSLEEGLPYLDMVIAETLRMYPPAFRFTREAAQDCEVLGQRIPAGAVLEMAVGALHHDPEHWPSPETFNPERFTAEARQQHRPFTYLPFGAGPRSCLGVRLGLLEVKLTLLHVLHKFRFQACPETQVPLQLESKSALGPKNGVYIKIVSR
Procedure: Indomethacin pretreated human platelet microsomes (Science 1976, 193, 163) are incubated (2 min.: 0° C.) with PGH2 (produced as in 1) and aliquots of the reaction mixture superfused over two rabbit aorta spirals which are separated by a delay coil (2 min.). The latter is required to allow the selective decay of the more unstable thromboxane A2 (Proc. Nat. Acad. Sci. 1975, 72, 2994) thereby enabling the separate measurement of increased isometric tension due to the TxA2 formed and the PGH2 remaining. The test compound is pre-incubated with the enzyme for 5 minutes, and its ability to inhibit the thromboxane synthetase enzyme is measured as its reduction of the TxA2 component of the isometric tension.

[1] = test system: human blood platelet aggregation; conditions: human blood platelets; literature; cited from earlier work
rabbits = conditions: intravenous arachidonic acid, literature; cited from earlier work
cyclo-oxygenase enzyme = conditions: background statement; cited from earlier work
aggregation of platelets = conditions: rat abdominal aorta, in vivo; literature; cited from earlier work
cyclo-oxygenase = biological target: T2, cyclo-oxygenase (Ovis aries, UniProt P05979); experiment: Cyclo-oxygenase inhibition; ram seminal vesicle microsomes, rabbit aorta strip bioassay; assay type: biochemical; conditions: 5 min pre-incubation, read-out: Molar concentration causing 50% inhibition of (2) cyclo-oxygenase
T2 construct: Ram seminal vesicle microsomes; from tissue; host or cells: ram seminal vesicle microsomes
T2 sequence (P05979 25-600): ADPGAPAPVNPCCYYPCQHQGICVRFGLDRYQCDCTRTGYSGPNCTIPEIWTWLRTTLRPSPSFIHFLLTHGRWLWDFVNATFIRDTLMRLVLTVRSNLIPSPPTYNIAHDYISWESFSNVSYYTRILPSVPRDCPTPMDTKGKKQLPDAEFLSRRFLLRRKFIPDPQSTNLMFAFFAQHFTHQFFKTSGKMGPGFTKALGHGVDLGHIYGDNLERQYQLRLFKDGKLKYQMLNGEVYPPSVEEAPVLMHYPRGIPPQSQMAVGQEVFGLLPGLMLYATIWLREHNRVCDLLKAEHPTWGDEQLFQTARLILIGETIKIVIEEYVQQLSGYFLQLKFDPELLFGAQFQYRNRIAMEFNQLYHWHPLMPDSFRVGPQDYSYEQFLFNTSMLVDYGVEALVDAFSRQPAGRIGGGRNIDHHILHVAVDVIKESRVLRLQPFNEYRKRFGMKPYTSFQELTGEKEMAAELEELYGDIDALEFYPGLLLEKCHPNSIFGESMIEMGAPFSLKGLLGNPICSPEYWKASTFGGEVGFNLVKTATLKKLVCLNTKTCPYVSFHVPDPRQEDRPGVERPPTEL
Procedure: Ram seminal vesicle microsomes(Biochemistry, 1971, 10, 2372) are incubated with arachidonic acid (100 μM: 1 min.: 22°) to produce PGH2 and aliquots of the reaction mixture injected into a stream of Krebs-bicarbonate at 37° C. (containing a mixture of antagonists (Nature, […], 218, 1135) and indomethacin (Brit. J. Pharmacol., 1972, 45, 451) which is superfusing a spirally-cut rabbit aorta strip (Nature, 1969, 223, 29). The ability of a compound to inhibit the enzyme is measured by comparing the increases in isometric tension produced by PGH2 in the absence of the test compound, and following pre-incubation of the enzyme with the test compound for 5 minutes.

prostacyclin synthetase [2] = biological target: T3, prostacyclin synthetase (Sus scrofa, UniProt A0A5G2QT35); experiment: Prostacyclin (PGI2) synthetase inhibition; pig aorta microsomes, rabbit aorta strip bioassay; assay type: biochemical; conditions: 5 min pre-incubation, read-out: Molar concentration causing 50% inhibition of (3) prostacyclin synthetase
T3 construct: Pig aorta microsomes; from tissue; host or cells: pig aorta microsomes
T3 sequence (A0A5G2QT35 1-497): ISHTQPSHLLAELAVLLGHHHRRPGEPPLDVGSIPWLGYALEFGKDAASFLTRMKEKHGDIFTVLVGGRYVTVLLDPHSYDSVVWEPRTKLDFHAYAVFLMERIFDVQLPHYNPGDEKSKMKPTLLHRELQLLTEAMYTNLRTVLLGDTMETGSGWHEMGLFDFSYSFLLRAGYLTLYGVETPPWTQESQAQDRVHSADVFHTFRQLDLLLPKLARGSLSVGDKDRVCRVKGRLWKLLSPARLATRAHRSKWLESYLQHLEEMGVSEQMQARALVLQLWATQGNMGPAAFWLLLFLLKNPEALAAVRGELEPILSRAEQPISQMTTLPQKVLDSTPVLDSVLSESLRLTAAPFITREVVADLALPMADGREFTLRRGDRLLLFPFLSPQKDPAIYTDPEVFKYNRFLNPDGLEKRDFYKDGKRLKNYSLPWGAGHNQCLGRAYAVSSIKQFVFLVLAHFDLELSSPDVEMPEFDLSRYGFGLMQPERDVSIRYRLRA
Procedure: The effect of the compounds of the formula (I) on the thromboxane synthetase enzyme, and the prostacyclin synthetase and cyclo-oxygenase enzymes has been measured by the following in vitro enzyme assays:
Pig aorta microsomes (Nature, 1976, 263, 663) are incubated (30 sec.; 22° C.) with PGH2 produced as in 1) and aliquots bio-assayed as in 1. […] The test compound is then pre-incubated with the enzyme for 5 minutes, and its ability to prevent the decrease in tension is measured.
The results of these tests are shown in the following Table, which gives the molar concentration of each compound which caused a 50% change in the effect of the relevant enzyme on isometric tension, i.e. caused a 50% inhibition of the action of that enzyme.

[3] = test system: human blood platelet aggregation; experiment: in vitro inhibition of human blood platelet aggregation; assay type: cell-based; conditions: human platelets, qualitative
From the text: In addition to the above as in vitro assay for measuring the inhibition of human blood platelet aggregation has been described and this may be predictive of anti-thrombotic efficacy clinically (Lancet (ii), 1974, 1223; J. Exp. Med., 1967, 126, 171).

prostacyclin synthetase [4] = biological target: T3, prostacyclin synthetase; conditions: pig aorta microsomes; pre-incubation of the enzyme; literature; cited from earlier work

Row | Compound | IC50 (thromboxane synthetase) | Ratio of (3) to (1) (thromboxane synthetase) | IC50 (prostacyclin synthetase [2]) | other results
1 | O=C(O)Cc1ccccc1OCCn1ccnc1 [Example 19, 2-[2-(1-Imidazolyl)ethoxy]phenylacetic acid Hydrochloride] | 580 nM |  |  | 
2 | NC(=O)COc1ccc(OCCn2ccnc2)cc1 [Example 23, 4-[2-(1-Imidazolyl)ethoxy]phenoxyacetamide] | 16 nM |  |  | 
3 | O=C(c1ccc(OCCn2ccnc2)cc1)N1CCOCC1 [Example 26, 1-[4-(2-Imidazol-1-yl)ethoxybenzoyl]morpholine] | 10000 nM |  |  | 
4 | O=C(O)COc1ccc(OCCn2ccnc2)cc1 [Example 18, 4-[2-(1-Imidazolyl)ethoxy]phenoxyacetic acid Hydrochloride] | 4.2 nM |  |  | 
5 | CC(=O)Oc1ccccc1C(=O)O [aspirin] |  |  |  | inhibitory activity in vitro against a variety of aggregating agents [1]: show inhibitory activity in vitro against a variety of aggregating agents; protect the rabbit from the lethal effect of the injection (rabbits): protect the rabbit from the lethal effect of the injection; inhibition of the cyclo-oxygenase enzyme (cyclo-oxygenase enzyme): inhibit the cyclo-oxygenase enzyme
6 | O=C1C(CC[S+]([O-])c2ccccc2)C(=O)N(c2ccccc2)N1c1ccccc1 (stereo not shown) [sulphinpyrazone] |  |  |  | inhibitory activity in vitro against a variety of aggregating agents [1]: show inhibitory activity in vitro against a variety of aggregating agents; protect the rabbit from the lethal effect of the injection (rabbits): protect the rabbit from the lethal effect of the injection; prevent the aggregation of platelets in an extra corporeal loop (aggregation of platelets): prevent the aggregation of platelets in an extra corporeal loop of the abdominal aorta of rats in vivo
7 | CN(C)C(=O)c1ccc(OCCn2ccnc2)cc1 [Example 25, 1-[2-(4-N,N-Dimethylcarbamoylphenoxy)ethyl]imidazole] | 5.6 nM | > 18,000 | > 100000 nM | IC50 (cyclo-oxygenase): > 100000 nM
8 | NC(=O)Cc1ccccc1OCCn1ccnc1 [Example 39, 1-[2-(2-Carbamoylmethylphenoxy)ethyl]imidazole] | 6600 nM |  |  | 
9 | O=C(O)c1ccc(OCCn2ccnc2)cc1 [Example 16, 1-[2-(4-Carboxyphenoxy)ethyl]imidazole] |  |  | > 100000 nM | preventing human blood platelet aggregation [3]: effective in preventing human blood platelet aggregation
10 | O=C(O)c1ccccc1OCCn1ccnc1 [Example 17, 1-[2-(2-Carboxyphenoxy)ethyl]imidazole Hydrochloride] | 34000 nM |  |  | 
11 | NC(=O)c1ccccc1OCCn1ccnc1 [Example 2] | 10000 nM |  |  | 
12 | CCCCCC(/C=C/C=C\C/C=C\C/C=C\CCCC(=O)O)OO (stereo not shown) [15-hydroperoxy-arachidonic acid] |  |  |  | prevention of the decrease in PGH2-induced tension (PGI2 synthetase inhibition) (prostacyclin synthetase [4]): prevented completely
13 | NC(=O)Cc1ccc(OCCn2ccnc2)cc1 [Example 3] | 1000 nM |  |  | 
14 | c1cn(CCOc2ccc(-c3nnn[nH]3)cc2)cn1 [Example 22, 1-[2-(4-Tetrazol-5-ylphenoxy)ethyl]imidazole] | 4.9 nM |  |  | 
15 | NC(=O)c1ccc(OCCn2ccnc2)cc1 [Example 1, 1-[2-(4-Carbamoylphenoxy)ethyl]imidazole] | 22 nM | > 4,500 | > 100000 nM | IC50 (cyclo-oxygenase): > 100000 nM
16 | CCOC(=O)Cc1ccc(OCCn2ccnc2)cc1 [Example 8] | 34 nM | > 2,900 | > 100000 nM | 
17 | CCOC(=O)c1ccccc1OCCn1ccnc1 [Example 4, 1-[2-(2-ethoxycarbonyl-phenoxy)ethyl]imidazole] | 40 nM | > 2,500 | > 100000 nM | 
18 | O=C(O)c1cccc(OCCn2ccnc2)c1 [Example 21, 1-[2-(3-Carboxyphenoxy)ethyl]imidazole Hydrochloride] | 12 nM |  |  | 
19 | CNC(=O)c1ccc(OCCn2ccnc2)cc1 [Example 24, 1-[2-(4-N-Methylcarbamoylphenoxy)ethyl]imidazole] | 5 nM | > 20,000 | > 100000 nM | IC50 (cyclo-oxygenase): > 100000 nM
20 | CCOC(=O)Cc1cccc(OCCn2ccnc2)c1 [Example 7] | 46 nM | 2,200 | 100000 nM | 
